Experimental data: US20220110902A1, “Methods of treating amyloid-beta peptide diseases” (Ecole Polytechnique Federale de Lausanne, priority 2016, published 2022)
“Also recorded” adds a separate entry of the source.

How the values were obtained:
GMC101 worms = experiment: Western-blot of amyloid aggregation in GMC101 worms; type: in vivo, C. elegans; conditions: for Aβ aggregation (proteotoxic stress): GMC101, day 1 of adulthood, dox 15 μg/mL, NR 1 mM, AZD 300 nM
Protocol: C. elegans: Worms were lysed by sonication with RIPA buffer containing protease and phosphatase inhibitors (Roche), and analyzed by SDS-PAGE and western blot. The concentration of extracted protein was determined by using the Bio-Rad Protein Assay. Proteins were detected using the following antibodies: anti-β-actin (Sigma), anti-tubulin (Santa Cruz), atp-5, ucr-1 (Oxphos cocktail, Abcam), anti-β-Amyloid, 1-16 (6E10) (BioLegend). In addition to the housekeeping proteins, loading was monitored by Ponceau Red to ensure a homogeneous loading. Pixel intensity was quantified by using ImageJ software. Each immunoblot experiment was repeated at least twice using 3 biological replicates each containing approximately 1000 worms.
During the assays, animals were exposed to Myriocin (dissolved in DMSO) from the egg stage on plates seeded with live HT115 E. coli bacteria. Control plates seeded with the same bacteria were prepared with the corresponding concentrations of DMSO. The day of the experiment (day 1 of adulthood, 3 days after hatching), the GMC101 population was shifted to 25° C. in order to induce the amyloid deposition in the body wall muscle. ˜1000 worms were used for western blotting assays.
(§1) Worms were lysed by sonication with RIPA buffer containing protease and phosphatase inhibitors (Roche), and analyzed by western blot. The concentration of extracted protein was determined by the Bio-Rad Protein Assay. Proteins were detected using the following antibodies: anti-β-actin (Sigma) and anti-β-Amyloid (BioLegend). In addition to the housekeeping proteins, loading was monitored by Ponceau Red to ensure a homogeneous loading. The immunoblot experiment employed 3 biological replicates, each containing approximately 1000 worms.
as §1, with “extracted proteins” for “extracted protein”, “3 biologicals” for “3 biological”
The GMC101 worms were recovered 24 h after being shifted at 25° C. The population was treated with UA at two different concentrations, ie 20 uM and 50 uM.

CL2122 worms = experiment: Transcript analysis of the MSR in CL2122 control worms; type: in vivo, C. elegans; conditions: CL2122, day 1 of adulthood; dox 15 μg/mL, NR 1 mM, AZD 0.3 μM
Protocol: C. elegans: A total of ˜3000 worms per condition, divided in 3 biological replicates, was recovered in M9 buffer from NGM plates and lysed in the TriPure RNA reagent. Each experiment was repeated twice. Total RNA was transcribed to cDNA using QuantiTect Reverse Transcription Kit (Qiagen). Expression of selected genes was analyzed using the LightCycler480 system (Roche) and LightCycler® 480 SYBR Green I Master reagent (Roche). For C. elegans, 2 housekeeping genes were used to normalize the expression data, namely actin (act-1) and peroxisomal membrane protein 3 (pmp-3).
atfs-1p::atfs-1 expression vector was created by amplifying 1488 bp sequence upstream from the transcription start site of atfs-1 coding region by using worm genomic DNA for the promoter region. […] The correctness of the atfs-1p::atfs-1 construct was assessed by sequencing with the indicated pPD30.38 and atfs-1 seq. primers. Two independent GMC101 lines (AUW9 and AUW10), and one CL2122 strain (AUW11) carrying atfs-1p::atfs-1 transgene as extrachromosomal array were analyzed in the study. […] The deriving F1 worms were shifted from 20° C. to 25° C. at the L4 stage to induce amyloid accumulation and paralysis, and phenotypes assessed over time as indicated. […]

SMILES	accumulation of amyloid-β aggregates (GMC101 worms; GMC101, Day 1 of adulthood, Myriocin 5 uM and 10 uM)	Aβ aggregation (proteotoxic stress) (GMC101 worms)	MSR transcripts in control strain (CL2122 worms)
CCCCCCC(=O)CCCCCC/C=C/C[C@@H](O)[C@H](O)[C@@](N)(CO)C(=O)O [Myriocin, (E,2S,3R,4R)-2-amino-3,4-dihydroxy-2-(hydroxymethyl)-14-oxoicos-6-enoic acid]	dose-dependently decreased; also recorded: dose-dependent reduction		
NC(=O)c1ccc[n+]([C@@H]2O[C@H](CO)[C@@H](O)[C@H]2O)c1 [NR, Nicotinamide Riboside triflate]		reduced proteotoxic stress	induction of the MSR was also consistently observed
O=C(c1cc(Cc2n[nH]c(=O)c3ccccc23)ccc1F)N1CCN(C(=O)C2CC2)CC1 [AZD, Olaparib, reference compound]		reduced proteotoxic stress	induction of the MSR was also consistently observed
